Reference: publication PMC5773580, “A synthetic combinatorial approach to disabling deviant Hedgehog signaling” (Scientific Reports, 2018)
Several values for one entry are separate records, joined by “and”; a condition that tells them apart may be missing. Equal entries are not always repeated.

Experiments:
HDAC8 = target: T1, HDAC8 (Homo sapiens, UniProt Q9BY41); test: In vitro HDAC profiling (deacetylation assay), HDAC8; type: biochemical; details: for HDAC Activity (Fluorescent counts): Repeat1/Repeat 2
T1 construct: purchased BPS Bioscience #50051-11
T1 sequence (Q9BY41 1-377): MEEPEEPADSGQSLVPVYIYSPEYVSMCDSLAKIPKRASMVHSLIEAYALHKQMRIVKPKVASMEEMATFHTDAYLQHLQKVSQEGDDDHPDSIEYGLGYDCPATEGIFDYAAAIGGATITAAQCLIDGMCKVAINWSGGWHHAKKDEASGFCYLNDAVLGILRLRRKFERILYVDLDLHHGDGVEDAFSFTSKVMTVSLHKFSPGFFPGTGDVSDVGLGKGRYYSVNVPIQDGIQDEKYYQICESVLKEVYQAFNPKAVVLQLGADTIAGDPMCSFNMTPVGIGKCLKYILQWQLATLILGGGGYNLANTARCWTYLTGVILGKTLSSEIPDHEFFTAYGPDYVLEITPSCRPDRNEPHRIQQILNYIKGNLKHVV
Experimental: (§1) HDAC profiling was performed at BPS Bioscience (San Diego, CA). All of the compounds are dissolved in DMSO. A series of dilutions of the compounds were prepared with 10% DMSO in HDAC assay buffer (#50031) and 5 µl of the dilution was added to a 50 µl reaction so that the final concentration of DMSO is 1% in all of reactions. All of the enzymatic reactions were conducted in duplicate at 37 °C for 30 mins, except that the enzyme reactions for HDAC11 were at room temperature for 3 hrs. All of the reactions were performed in a 50 µl mixture containing HDAC assay buffer, 5 µg BSA, an HDAC substrate [HDAC Substrate 3 (BPS number 50037) or HDAC Class 2a Substrate 1 (BPS number 50040)], an HDAC enzyme (#50051-11) and a test compound. After enzymatic reactions, 50 μl of HDAC Developer (#50030) was added to each well and the plate was incubated at room temperature for an additional 20 mins. Fluorescence intensity was measured at an excitation of 360 nm and an emission of 460 nm using a Tecan Infinite M1000 microplate reader. HDAC activity assays were performed in duplicates at each concentration. The fluorescent intensity data were analyzed using the computer software, Graphpad Prism. In the absence of the compound, the fluorescent intensity (Ft) in each data set was defined as 100% activity. In the absence of HDAC, the fluorescent intensity (Fb) in each data set was defined as 0% activity. The percent activity in the presence of each compound was calculated according to the following equation: %activity = (F − Fb)/(Ft − Fb), where F = the fluorescent intensity in the presence of the compound. The values of % activity versus a series of compound concentrations were then plotted using non-linear regression analysis of Sigmoidal dose-response curve generated with the equation Y = B + (T − B)/1 + 10((LogIC50 − X) × Hill Slope), where Y = percent activity, B = minimum percent activity, T = maximum percent activity, X = logarithm of compound and Hill Slope = slope factor or Hill coefficient. The IC50 value was determined by the concentration causing a half-maximal percent activity.

[1] = tested on: nuclear HDAC activity (Ac-H3) in NIH-3T3 cells; test: Acetylation assay, Western blotting for acetylated histone 3 (Ac-H3); type: cell-based; details: 48hrs, Western blot
Experimental: For analyzing acetylation status of histone 3 and tubulin, NIH3T3 cells were grown to confluence in 6-well plates. After 48hrs of treatment with indicated chemicals, cells were lysed in RIPA buffer or 1% NP40/phosphate buffered saline/protease inhibitors (SIGMA, #S8820), the lysate cleared using a microcentrifuge, then 6 × sample loading buffer (Bioland Scientific) added to the supernatant. Proteins were separated on SDS-PAGE (BioRad Criterion TGX Precast Gels). Antibodies used for analyzing the blots were: acetylated tubulin (SIGMA, #T6793), tubulin, acetyl-histone H3 (Lys23), and histone H3 (Cell Signaling Technology, #2125 S, #8848 and #9717, respectively). Chemiluminescence was detected using a Li-COR Odyssey Imaging System.

HDAC5 = target: T2, HDAC5 (Homo sapiens, UniProt Q9UQL6); test: In vitro HDAC profiling (deacetylation assay), HDAC5; type: biochemical; details: for HDAC Activity (Fluorescent counts): Repeat1/Repeat 2
T2 construct: purchased BPS Bioscience #50051-11
T2 sequence (Q9UQL6 whole entry): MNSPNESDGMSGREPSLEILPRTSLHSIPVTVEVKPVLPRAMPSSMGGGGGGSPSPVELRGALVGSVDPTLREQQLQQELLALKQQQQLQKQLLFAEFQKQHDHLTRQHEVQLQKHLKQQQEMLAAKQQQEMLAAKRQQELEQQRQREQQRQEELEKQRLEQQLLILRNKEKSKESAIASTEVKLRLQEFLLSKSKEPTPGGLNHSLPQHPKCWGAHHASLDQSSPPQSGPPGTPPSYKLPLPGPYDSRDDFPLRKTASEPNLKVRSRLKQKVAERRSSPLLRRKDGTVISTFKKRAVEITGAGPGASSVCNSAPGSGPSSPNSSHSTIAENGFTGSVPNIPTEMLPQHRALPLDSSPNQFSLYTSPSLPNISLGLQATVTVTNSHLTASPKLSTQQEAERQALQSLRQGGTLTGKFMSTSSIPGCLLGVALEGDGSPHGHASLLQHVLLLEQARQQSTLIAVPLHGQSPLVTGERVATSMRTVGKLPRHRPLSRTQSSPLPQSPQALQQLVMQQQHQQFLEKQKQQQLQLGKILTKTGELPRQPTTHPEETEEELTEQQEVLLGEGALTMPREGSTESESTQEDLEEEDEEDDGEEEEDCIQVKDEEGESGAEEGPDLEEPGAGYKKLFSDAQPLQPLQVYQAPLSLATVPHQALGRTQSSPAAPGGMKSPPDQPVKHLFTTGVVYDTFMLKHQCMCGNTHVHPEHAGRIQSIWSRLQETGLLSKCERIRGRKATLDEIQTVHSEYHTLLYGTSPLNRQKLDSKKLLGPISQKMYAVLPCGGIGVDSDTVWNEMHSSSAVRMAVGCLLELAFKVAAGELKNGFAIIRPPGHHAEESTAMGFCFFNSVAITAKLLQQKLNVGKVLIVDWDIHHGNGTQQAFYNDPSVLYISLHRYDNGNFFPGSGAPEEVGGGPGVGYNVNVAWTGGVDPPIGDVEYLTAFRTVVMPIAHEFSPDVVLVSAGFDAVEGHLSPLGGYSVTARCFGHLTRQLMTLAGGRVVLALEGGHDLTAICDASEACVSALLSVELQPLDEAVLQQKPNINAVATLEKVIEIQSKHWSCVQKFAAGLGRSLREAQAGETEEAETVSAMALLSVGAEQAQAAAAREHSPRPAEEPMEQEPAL
Experimental: as §1

[2] = tested on: SHH-induced GLI activity (GLI-BS reporter) in NIH3T3; test: HH pathway reporter (GLI-BS reporter) assay, +Shh in NIH3T3; type: cell-based; details: Mus musculus; +Shh in NIH3T3, 48 hrs with compound
Experimental: (§2) The HH-responsive firefly luciferase reporter (GLI-BS) and a control Renilla luciferase reporter (SV40-RL) were transfected into indicated cell lines using Effectene (Qiagen) either alone or with indicated DNAs. 24 hrs after transfection, cells were switched to low serum media (3% calf serum), and grown for another 48 hrs. in 5% CO2 in the presence/absence of compounds. 3T3-ShhFL cell line that stably expressing SHH and the two reporters were cultured in a similar fashion. FL and RL activities in lysate generated using Passive Lysis Buffer (Promega) were then assessed using the Dual-Luciferase kit (Promega) and a 96-well plate reading luminometer (BMG). The ratio of FL/RL was calculated and the averaged ratios from three replicates were reported.

[3] = tested on: GLI-BS reporter in Ptch1-/- MEFs; test: GLI-BS reporter assay in Ptch1-/- MEFs; type: cell-based
Experimental: as §2

[4] = in vitro deacetylation assay, duplicates

## O=C(CCCCCCC(=O)Nc1ccc(Cl)c(C(=O)Nc2ccc(NC(=O)c3cc(Cl)ccc3Cl)cc2)c1)NO [IHR-SAHA]
HDAC8; HDAC8, WW01 0 Log nM
  HDAC Activity (Fluorescent counts): 21093 Fluorescent counts and 21821 Fluorescent counts
HDAC8; HDAC8, WW01 0.5 Log nM
  HDAC Activity (Fluorescent counts): 22364 Fluorescent counts and 22102 Fluorescent counts
HDAC8; HDAC8, WW01 1 Log nM
  HDAC Activity (Fluorescent counts): 22562 Fluorescent counts and 22110 Fluorescent counts
HDAC8; HDAC8, WW01 1.5 Log nM
  HDAC Activity (Fluorescent counts): 21528 Fluorescent counts and 20488 Fluorescent counts
HDAC8; HDAC8, WW01 2 Log nM
  HDAC Activity (Fluorescent counts): 18696 Fluorescent counts and 20642 Fluorescent counts
HDAC8; HDAC8, WW01 2.5 Log nM
  HDAC Activity (Fluorescent counts): 20242 Fluorescent counts and 19075 Fluorescent counts
HDAC8; HDAC8, WW01 3 Log nM
  HDAC Activity (Fluorescent counts): 18387 Fluorescent counts and 19845 Fluorescent counts
HDAC8; HDAC8, WW01 3.5 Log nM
  HDAC Activity (Fluorescent counts): 17109 Fluorescent counts and 19683 Fluorescent counts
HDAC8; HDAC8, WW01 4 Log nM
  HDAC Activity (Fluorescent counts): 16686 Fluorescent counts and 18294 Fluorescent counts
HDAC8; HDAC8, WW01 -0.5 Log nM
  HDAC Activity (Fluorescent counts): 19254 Fluorescent counts and 22456 Fluorescent counts
HDAC8; [4]
  IC50: > 10000 nM
[1]
  HDAC inhibitory activity, accumulation of acetylated histone 3 (ratio Ac-H3 to total H3): retain HDAC inhibitory activity
HDAC5; HDAC5, WW01 0 Log nM
  HDAC Activity (Fluorescent counts): 30976 Fluorescent counts and 29141 Fluorescent counts
HDAC5; HDAC5, WW01 0.5 Log nM
  HDAC Activity (Fluorescent counts): 29969 Fluorescent counts and 29451 Fluorescent counts
HDAC5; HDAC5, WW01 1 Log nM
  HDAC Activity (Fluorescent counts): 31041 Fluorescent counts and 29968 Fluorescent counts
HDAC5; HDAC5, WW01 1.5 Log nM
  HDAC Activity (Fluorescent counts): 29717 Fluorescent counts and 27943 Fluorescent counts
HDAC5; HDAC5, WW01 2 Log nM
  HDAC Activity (Fluorescent counts): 26390 Fluorescent counts and 24587 Fluorescent counts
HDAC5; HDAC5, WW01 2.5 Log nM
  HDAC Activity (Fluorescent counts): 24330 Fluorescent counts and 23282 Fluorescent counts
HDAC5; HDAC5, WW01 3 Log nM
  HDAC Activity (Fluorescent counts): 21924 Fluorescent counts and 21338 Fluorescent counts
HDAC5; HDAC5, WW01 3.5 Log nM
  HDAC Activity (Fluorescent counts): 23432 Fluorescent counts and 20698 Fluorescent counts
HDAC5; HDAC5, WW01 4 Log nM
  HDAC Activity (Fluorescent counts): 19760 Fluorescent counts and 18237 Fluorescent counts
HDAC5; HDAC5, WW01 -0.5 Log nM
  HDAC Activity (Fluorescent counts): 30061 Fluorescent counts and 30641 Fluorescent counts
HDAC5; [4]
  IC50: > 10000 nM
[2]
  IC50: 3 nM
[3]
  IC50: 15 nM
